Values quoted from earlier work as cited in patent US20190256487A1, “HYDROXYN[…]” (BioPharmaWorks, LLC, priority 2016, published 2019).

Key:
[1] = mice
[2] = mice; remark: listed apart in the source

Compound: N[C@@]1(c2ccccc2Cl)CCC[C@@H](O)C1=O [(2R,6R)-HNK, (2R,6R)-hydroxynorketamine]
- ketamine-related side effects [1]: lacks ketamine-related side effects
- antidepressant actions [2]: rapid and sustained antidepressant actions
